# What was measured:
# [1] = target: T1, Cytochrome P450 1A2 (Homo sapiens, UniProt P05177)
# T1 sequence (P05177 whole entry): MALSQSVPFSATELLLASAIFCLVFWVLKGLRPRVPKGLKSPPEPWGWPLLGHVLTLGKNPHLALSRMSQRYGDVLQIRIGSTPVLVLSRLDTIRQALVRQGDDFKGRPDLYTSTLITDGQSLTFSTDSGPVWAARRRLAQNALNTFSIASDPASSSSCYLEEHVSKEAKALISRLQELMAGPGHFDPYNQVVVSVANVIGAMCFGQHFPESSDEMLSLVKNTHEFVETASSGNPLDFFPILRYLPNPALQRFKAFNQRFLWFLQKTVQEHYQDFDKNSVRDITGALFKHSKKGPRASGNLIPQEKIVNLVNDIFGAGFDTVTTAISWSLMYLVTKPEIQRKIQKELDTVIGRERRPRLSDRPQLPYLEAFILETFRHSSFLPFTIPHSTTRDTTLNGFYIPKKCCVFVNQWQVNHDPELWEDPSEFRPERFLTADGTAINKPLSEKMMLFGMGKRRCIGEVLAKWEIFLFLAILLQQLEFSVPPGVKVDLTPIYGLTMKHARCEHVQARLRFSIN
# [2] = target: T2, Estrogen receptor (Homo sapiens, UniProt P03372); test: biochemical
# T2 sequence (P03372 whole entry): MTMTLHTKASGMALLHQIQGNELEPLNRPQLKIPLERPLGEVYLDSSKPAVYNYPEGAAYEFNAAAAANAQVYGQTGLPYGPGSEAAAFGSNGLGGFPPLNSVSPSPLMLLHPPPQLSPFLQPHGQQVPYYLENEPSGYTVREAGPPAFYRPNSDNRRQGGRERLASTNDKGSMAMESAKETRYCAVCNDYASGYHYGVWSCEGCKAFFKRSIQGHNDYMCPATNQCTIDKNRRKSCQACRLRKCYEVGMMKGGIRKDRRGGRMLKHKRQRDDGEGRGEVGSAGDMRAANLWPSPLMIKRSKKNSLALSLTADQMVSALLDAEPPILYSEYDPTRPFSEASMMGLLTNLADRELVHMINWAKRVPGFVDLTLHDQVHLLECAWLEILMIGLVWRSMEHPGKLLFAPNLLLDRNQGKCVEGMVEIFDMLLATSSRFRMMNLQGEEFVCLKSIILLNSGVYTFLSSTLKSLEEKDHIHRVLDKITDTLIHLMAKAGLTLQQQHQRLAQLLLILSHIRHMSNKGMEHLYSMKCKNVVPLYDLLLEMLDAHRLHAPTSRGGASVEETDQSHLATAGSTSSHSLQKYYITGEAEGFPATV
# [3] = target: Cytochrome P450 3A4 (Homo sapiens, UniProt P08684)
# Cytochrome P450 3A4, sequence (P08684 whole entry): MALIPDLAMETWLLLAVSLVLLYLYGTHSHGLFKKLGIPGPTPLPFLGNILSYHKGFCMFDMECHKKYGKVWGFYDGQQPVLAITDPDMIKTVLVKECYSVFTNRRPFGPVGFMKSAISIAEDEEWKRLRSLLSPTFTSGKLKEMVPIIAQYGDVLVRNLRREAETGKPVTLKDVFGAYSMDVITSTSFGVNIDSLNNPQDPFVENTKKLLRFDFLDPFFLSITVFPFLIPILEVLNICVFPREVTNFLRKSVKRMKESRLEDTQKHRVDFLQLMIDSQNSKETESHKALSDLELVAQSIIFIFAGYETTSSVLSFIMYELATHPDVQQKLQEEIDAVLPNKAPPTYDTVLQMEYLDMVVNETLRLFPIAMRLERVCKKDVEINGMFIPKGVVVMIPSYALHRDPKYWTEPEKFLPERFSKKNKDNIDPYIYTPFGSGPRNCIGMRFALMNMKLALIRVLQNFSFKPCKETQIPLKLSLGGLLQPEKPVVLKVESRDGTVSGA
SMILES,IC50 [1] [nM],IC50 [2] [nM],Ki [2] [nM],IC50 [3] [nM]
S=C=Nc1cccc2ccccc12 [1-NAPHTHYLISOTHIOCYANATE],1000,–,–,–
C[C@]12CC[C@@H]3c4ccc(OC(=O)c5ccccc5)cc4CC[C@H]3[C@@H]1CC[C@@H]2O [ESTRADIOL BENZOATE],–,65,18,–
C#C[C@]1(O)CC[C@H]2[C@@H]3CCc4cc(OC)ccc4[C@H]3CC[C@@]21C [MESTRANOL],–,18,5.22,–
CC(=O)Nc1cccc(O)c1 [METACETAMOL],2000,–,–,–
CC(C)(C(=O)c1cccnc1)c1cccnc1 [METYRAPONE],–,–,–,800
